According to PubChem BioAssay (NCI):
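1) Cells in 96-well plates. 2) Compound, 48 h, 5 concentrations. 3) Linear interpolation between surrounding doses. 4) Unreached endpoint = highest concentration. The concentration for full growth arrest is given as TGI.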

Assays:
Assay in all cases: DTP human tumour cell line panel, 48 h
786-0 renal = test system: 786-0 renal
A498 renal = test system: A498 renal
ACHN renal = test system: ACHN renal
BT-549 breast = test system: BT-549 breast
CAKI-1 renal = test system: CAKI-1 renal
COLO 205 colon = test system: COLO 205 colon
DU-145 prostate = test system: DU-145 prostate
EKVX NSCLC = test system: EKVX NSCLC
HCC-2998 colon = test system: HCC-2998 colon
HCT-116 colon = test system: HCT-116 colon
HCT-15 colon = test system: HCT-15 colon
HL-60(TB) leukemia = test system: HL-60(TB) leukemia
HOP-62 NSCLC = test system: HOP-62 NSCLC
HOP-92 NSCLC = test system: HOP-92 NSCLC
HS 578T breast = test system: HS 578T breast
IGROV1 ovarian = test system: IGROV1 ovarian
K-562 leukemia = test system: K-562 leukemia
LOX IMVI melanoma = test system: LOX IMVI melanoma
M14 melanoma = test system: M14 melanoma
MALME-3M melanoma = test system: MALME-3M melanoma
MCF7 breast = test system: MCF7 breast
MDA-MB-231 breast = test system: MDA-MB-231 breast
MDA-MB-435 = test system: MDA-MB-435
MDA-N = test system: MDA-N
MOLT-4 leukemia = test system: MOLT-4 leukemia
NCI-H226 lung = test system: NCI-H226 lung
NCI-H23 lung = test system: NCI-H23 lung
NCI-H460 lung = test system: NCI-H460 lung
NCI-H522 lung = test system: NCI-H522 lung
NCI/ADR-RES ovarian = test system: NCI/ADR-RES ovarian
OVCAR-3 ovarian = test system: OVCAR-3 ovarian
OVCAR-4 ovarian = test system: OVCAR-4 ovarian
OVCAR-5 ovarian = test system: OVCAR-5 ovarian
OVCAR-8 ovarian = test system: OVCAR-8 ovarian
PC-3 prostate = test system: PC-3 prostate
RPMI-8226 leukemia = test system: RPMI-8226 leukemia
RXF 393 renal = test system: RXF 393 renal
SF-268 CNS = test system: SF-268 CNS
SF-295 CNS = test system: SF-295 CNS
SF-539 CNS = test system: SF-539 CNS
SK-MEL-2 melanoma = test system: SK-MEL-2 melanoma
SK-MEL-28 melanoma = test system: SK-MEL-28 melanoma
SK-OV-3 ovarian = test system: SK-OV-3 ovarian
SN12C renal = test system: SN12C renal
SNB-19 CNS = test system: SNB-19 CNS
SNB-75 CNS = test system: SNB-75 CNS
SR leukemia = test system: SR leukemia
T-47D breast = test system: T-47D breast
U251 CNS = test system: U251 CNS
UACC-257 melanoma = test system: UACC-257 melanoma
UO-31 renal = test system: UO-31 renal
A549 NSCLC = test system: A549 NSCLC
CCRF-CEM leukemia = test system: CCRF-CEM leukemia
HT29 colon = test system: HT29 colon
KM12 colon = test system: KM12 colon
SK-MEL-5 melanoma = test system: SK-MEL-5 melanoma
SW-620 colon = test system: SW-620 colon
TK-10 renal = test system: TK-10 renal
UACC-62 melanoma = test system: UACC-62 melanoma

## O=[N+]([O-])c1ccc2c(c1)c1nn2CCCCOc2nn(c3ccc([N+](=O)[O-])cc23)CCCCO1
786-0 renal
  TGI: > 100 µM
A498 renal
  TGI: > 100 µM
ACHN renal
  TGI: > 100 µM
BT-549 breast
  TGI: > 100 µM
CAKI-1 renal
  TGI: > 100 µM
COLO 205 colon
  TGI: > 100 µM
DU-145 prostate
  TGI: > 100 µM
EKVX NSCLC
  TGI: > 100 µM
HCC-2998 colon
  TGI: > 100 µM
HCT-116 colon
  TGI: > 100 µM
HCT-15 colon
  TGI: > 100 µM
HL-60(TB) leukemia
  TGI: > 100 µM
HOP-62 NSCLC
  TGI: > 100 µM
HOP-92 NSCLC
  TGI: > 100 µM
HS 578T breast
  TGI: > 100 µM
IGROV1 ovarian
  TGI: > 100 µM
K-562 leukemia
  TGI: > 100 µM
LOX IMVI melanoma
  TGI: > 100 µM
M14 melanoma
  TGI: > 100 µM
MALME-3M melanoma
  TGI: > 100 µM
MCF7 breast
  TGI: > 100 µM
MDA-MB-231 breast
  TGI: > 100 µM
MDA-MB-435
  TGI: > 100 µM
MDA-N
  TGI: > 100 µM
MOLT-4 leukemia
  TGI: > 100 µM
NCI-H226 lung
  TGI: > 100 µM
NCI-H23 lung
  TGI: > 100 µM
NCI-H460 lung
  TGI: > 100 µM
NCI-H522 lung
  TGI: > 100 µM
NCI/ADR-RES ovarian
  TGI: > 100 µM
OVCAR-3 ovarian
  TGI: > 100 µM
OVCAR-4 ovarian
  TGI: > 100 µM
OVCAR-5 ovarian
  TGI: > 100 µM
OVCAR-8 ovarian
  TGI: > 100 µM
PC-3 prostate
  TGI: > 100 µM
RPMI-8226 leukemia
  TGI: > 100 µM
RXF 393 renal
  TGI: > 100 µM
SF-268 CNS
  TGI: > 100 µM
SF-295 CNS
  TGI: > 100 µM
SF-539 CNS
  TGI: > 100 µM
SK-MEL-2 melanoma
  TGI: > 100 µM
SK-MEL-28 melanoma
  TGI: > 100 µM
SK-OV-3 ovarian
  TGI: > 100 µM
SN12C renal
  TGI: > 100 µM
SNB-19 CNS
  TGI: > 100 µM
SNB-75 CNS
  TGI: > 100 µM
SR leukemia
  TGI: > 100 µM
T-47D breast
  TGI: > 100 µM
U251 CNS
  TGI: > 100 µM
UACC-257 melanoma
  TGI: > 100 µM
UO-31 renal
  TGI: > 100 µM

## Clc1cc(OC23CC4CC(CC(C4)C2)C3)nc(Cl)n1
786-0 renal
  TGI: > 100 µM
A498 renal
  TGI: > 100 µM
A549 NSCLC
  TGI: > 100 µM
ACHN renal
  TGI: > 100 µM
BT-549 breast
  TGI: > 100 µM
CCRF-CEM leukemia
  TGI: 86.2 µM
COLO 205 colon
  TGI: > 100 µM
DU-145 prostate
  TGI: > 100 µM
EKVX NSCLC
  TGI: > 100 µM
HCC-2998 colon
  TGI: 29.6 µM
HCT-116 colon
  TGI: > 100 µM
HCT-15 colon
  TGI: > 100 µM
HL-60(TB) leukemia
  TGI: 29.7 µM
HOP-62 NSCLC
  TGI: > 100 µM
HOP-92 NSCLC
  TGI: 3.5 µM
HS 578T breast
  TGI: 54.3 µM
HT29 colon
  TGI: > 100 µM
IGROV1 ovarian
  TGI: > 100 µM
K-562 leukemia
  TGI: > 100 µM
KM12 colon
  TGI: > 100 µM
LOX IMVI melanoma
  TGI: 36.1 µM
M14 melanoma
  TGI: > 100 µM
MALME-3M melanoma
  TGI: > 100 µM
MCF7 breast
  TGI: > 100 µM
MDA-MB-231 breast
  TGI: > 100 µM
MDA-MB-435
  TGI: > 100 µM
MDA-N
  TGI: > 100 µM
MOLT-4 leukemia
  TGI: > 100 µM
NCI-H23 lung
  TGI: > 100 µM
NCI-H460 lung
  TGI: > 100 µM
NCI-H522 lung
  TGI: > 100 µM
NCI/ADR-RES ovarian
  TGI: > 100 µM
OVCAR-3 ovarian
  TGI: > 100 µM
OVCAR-4 ovarian
  TGI: > 100 µM
OVCAR-5 ovarian
  TGI: > 100 µM
OVCAR-8 ovarian
  TGI: > 100 µM
PC-3 prostate
  TGI: > 100 µM
RPMI-8226 leukemia
  TGI: > 100 µM
RXF 393 renal
  TGI: 85.8 µM
SF-268 CNS
  TGI: > 100 µM
SF-295 CNS
  TGI: > 100 µM
SF-539 CNS
  TGI: > 100 µM
SK-MEL-2 melanoma
  TGI: > 100 µM
SK-MEL-28 melanoma
  TGI: > 100 µM
SK-MEL-5 melanoma
  TGI: > 100 µM
SK-OV-3 ovarian
  TGI: > 100 µM
SN12C renal
  TGI: > 100 µM
SNB-19 CNS
  TGI: > 100 µM
SNB-75 CNS
  TGI: > 100 µM
SR leukemia
  TGI: 48.4 µM
SW-620 colon
  TGI: > 100 µM
T-47D breast
  TGI: > 100 µM
TK-10 renal
  TGI: > 100 µM
U251 CNS
  TGI: > 100 µM
UACC-257 melanoma
  TGI: > 100 µM
UACC-62 melanoma
  TGI: > 100 µM
UO-31 renal
  TGI: 87.5 µM

## N#Cc1c(N)c2c(c(-c3ccccc3)c1-c1ccccc1)C(=O)N(N)C2=O
786-0 renal
  TGI: > 100 µM
A549 NSCLC
  TGI: > 100 µM
ACHN renal
  TGI: > 100 µM
BT-549 breast
  TGI: > 100 µM
CAKI-1 renal
  TGI: > 100 µM
CCRF-CEM leukemia
  TGI: > 100 µM
COLO 205 colon
  TGI: > 100 µM
DU-145 prostate
  TGI: > 100 µM
EKVX NSCLC
  TGI: > 100 µM
HCC-2998 colon
  TGI: > 100 µM
HCT-116 colon
  TGI: > 100 µM
HCT-15 colon
  TGI: > 100 µM
HL-60(TB) leukemia
  TGI: > 100 µM
HOP-92 NSCLC
  TGI: > 100 µM
HS 578T breast
  TGI: > 100 µM
HT29 colon
  TGI: > 100 µM
IGROV1 ovarian
  TGI: > 100 µM
K-562 leukemia
  TGI: > 100 µM
KM12 colon
  TGI: > 100 µM
M14 melanoma
  TGI: > 100 µM
MALME-3M melanoma
  TGI: > 100 µM
MCF7 breast
  TGI: > 100 µM
MDA-MB-231 breast
  TGI: > 100 µM
MDA-MB-435
  TGI: > 100 µM
MDA-N
  TGI: > 100 µM
MOLT-4 leukemia
  TGI: > 100 µM
NCI-H226 lung
  TGI: > 100 µM
NCI-H23 lung
  TGI: > 100 µM
NCI-H460 lung
  TGI: > 100 µM
NCI-H522 lung
  TGI: > 100 µM
NCI/ADR-RES ovarian
  TGI: > 100 µM
OVCAR-3 ovarian
  TGI: > 100 µM
OVCAR-4 ovarian
  TGI: > 100 µM
OVCAR-5 ovarian
  TGI: > 100 µM
OVCAR-8 ovarian
  TGI: > 100 µM
PC-3 prostate
  TGI: > 100 µM
RPMI-8226 leukemia
  TGI: > 100 µM
RXF 393 renal
  TGI: > 100 µM
SF-268 CNS
  TGI: > 100 µM
SF-295 CNS
  TGI: > 100 µM
SF-539 CNS
  TGI: > 100 µM
SK-MEL-2 melanoma
  TGI: > 100 µM
SK-MEL-28 melanoma
  TGI: > 100 µM
SK-MEL-5 melanoma
  TGI: > 100 µM
SK-OV-3 ovarian
  TGI: > 100 µM
SN12C renal
  TGI: > 100 µM
SNB-19 CNS
  TGI: > 100 µM
SNB-75 CNS
  TGI: > 100 µM
SR leukemia
  TGI: > 100 µM
SW-620 colon
  TGI: > 100 µM
T-47D breast
  TGI: > 100 µM
TK-10 renal
  TGI: > 100 µM
U251 CNS
  TGI: > 100 µM
UACC-257 melanoma
  TGI: > 100 µM
UACC-62 melanoma
  TGI: > 100 µM
UO-31 renal
  TGI: > 100 µM
